≈ marks a conversion by molar mass, not a printed value. Values belong to the compound of their own block, whether it stands above or below them.
Assays:
Type in all cases: functional
Staphylococcus aureus [1] = assay: Antibacterial activity against Staphylococcus aureus assessed as bacterial growth inhibition by dilution method
Staphylococcus aureus [2] = assay: Antibacterial activity against methicillin- resistant Staphylococcus aureus assessed as bacterial growth inhibition by dilution method
Staphylococcus aureus [3] = assay: Potency index, ratio of Linezolid MIC to test compound MIC for antibacterial activity against methicillin- resistant Staphylococcus aureus assessed as bacterial growth inhibition by dilution method
Escherichia coli [4] = assay: Antibacterial activity against Escherichia coli MTCC 443 assessed as bacterial growth inhibition by broth microdilution method
Pseudomonas aeruginosa [5] = assay: Antibacterial activity against Pseudomonas aeruginosa MTCC 1688 assessed as bacterial growth inhibition by broth microdilution method
Streptococcus pyogenes [6] = assay: Antibacterial activity against Streptococcus pyogenes MTCC 442 assessed as bacterial growth inhibition by broth microdilution method
Staphylococcus aureus [7] = assay: Antibacterial activity against Staphylococcus aureus MTCC 96 assessed as bacterial growth inhibition by broth microdilution method
Escherichia coli [8] = assay: Potency index, ratio of Ciprofloxacin MIC to test compound MIC for antibacterial activity against Escherichia coli MTCC 443 assessed as bacterial growth inhibition by broth microdilution method
Pseudomonas aeruginosa [9] = assay: Potency index, ratio of Ciprofloxacin MIC to test compound MIC for antibacterial activity against Pseudomonas aeruginosa MTCC 1688 assessed as bacterial growth inhibition by broth microdilution method
Streptococcus pyogenes [10] = assay: Potency index, ratio of Ciprofloxacin MIC to test compound MIC for antibacterial activity against Streptococcus pyogenes MTCC 442 assessed as bacterial growth inhibition by broth microdilution method
Staphylococcus aureus [11] = assay: Potency index, ratio of Ciprofloxacin MIC to test compound MIC for antibacterial activity against Staphylococcus aureus MTCC 96 assessed as bacterial growth inhibition by broth microdilution method
Staphylococcus aureus [12] = assay: Antibacterial activity against Staphylococcus aureus assessed as bacterial growth inhibition by broth dilution method
[13] = test system: Staphylococcus epidermidis; assay: Antibacterial activity against Staphylococcus epidermidis assessed as bacterial growth inhibition by broth dilution method
Staphylococcus aureus [14] = assay: Potency index, ratio of streptomycin MIC to test compound MIC for antibacterial activity against Staphylococcus aureus assessed as bacterial growth inhibition by broth dilution method
[15] = test system: Staphylococcus epidermidis; assay: Potency index, ratio of streptomycin MIC to test compound MIC for antibacterial activity against Staphylococcus epidermidis assessed as bacterial growth inhibition by broth dilution method
Pseudomonas aeruginosa [16] = assay: Antibacterial activity against Pseudomonas aeruginosa assessed as bacterial growth inhibition by broth dilution method
Klebsiella pneumoniae [17] = assay: Antibacterial activity against Klebsiella pneumoniae assessed as bacterial growth inhibition by broth dilution method
Pseudomonas aeruginosa [18] = assay: Potency index, ratio of Penicillin MIC to test compound MIC for antibacterial activity against Pseudomonas aeruginosa assessed as bacterial growth inhibition by broth dilution method
Klebsiella pneumoniae [19] = assay: Potency index, ratio of Penicillin MIC to test compound MIC for antibacterial activity against Klebsiella pneumoniae assessed as bacterial growth inhibition by broth dilution method
Klebsiella pneumoniae [20] = assay: Antibacterial activity against Klebsiella pneumoniae NCDC 138 assessed as bacterial growth inhibition incubated for 24 hrs by serial dilution method
Escherichia coli [21] = assay: Antibacterial activity against Escherichia coli MTCC 443 assessed as bacterial growth inhibition incubated for 24 hrs by serial dilution method
Staphylococcus aureus [22] = assay: Antibacterial activity against Staphylococcus aureus ATCC 25923 assessed as bacterial growth inhibition incubated for 18 to 20 hrs by broth microdilution method; conditions: time 18-20 hrs
Staphylococcus aureus [23] = assay: Antibacterial activity against Staphylococcus aureus ATCC 29213 assessed as bacterial growth inhibition incubated for 16 to 20 hrs by CLSI based broth microdilution method; conditions: time 16-20 hrs
Escherichia coli [24] = assay: Antibacterial activity against Escherichia coli ATCC 25922 assessed as bacterial growth inhibition incubated for 16 to 20 hrs by CLSI based broth microdilution method; conditions: time 16-20 hrs
Pseudomonas aeruginosa [25] = assay: Antibacterial activity against Pseudomonas aeruginosa ATCC 27853 assessed as bacterial growth inhibition incubated for 16 to 20 hrs by CLSI based broth microdilution method; conditions: time 16-20 hrs
Staphylococcus aureus [26] = assay: Antibacterial activity against Staphylococcus aureus assessed as bacterial growth inhibition by agar well diffusion method
Escherichia coli [27] = assay: Antibacterial activity against Escherichia coli assessed as bacterial growth inhibition by agar well diffusion method
Pseudomonas aeruginosa [28] = assay: Antibacterial activity against Pseudomonas aeruginosa assessed as bacterial growth inhibition by agar well diffusion method
Bacillus subtilis = assay: Antibacterial activity against Bacillus subtilis assessed as bacterial growth inhibition by agar well diffusion method

SMILES: CC(=O)NC[C@H]1CN(c2ccc(-n3cc(-c4ncccn4)nn3)c(F)c2)C(=O)O1
- MIC (Staphylococcus aureus [1]): 2 µg/mL (≈ 5.03 µM)
- MIC (Staphylococcus aureus [2]): 0.5 µg/mL (≈ 1.26 µM)
- Ratio (Staphylococcus aureus [3]): 4

- MIC (Escherichia coli [4]): 0.5 µg/mL (≈ 1.54 µM)
- MIC (Pseudomonas aeruginosa [5]): 0.5 µg/mL (≈ 1.54 µM)
- MIC (Streptococcus pyogenes [6]): 0.5 µg/mL (≈ 1.54 µM)
- MIC (Staphylococcus aureus [7]): 0.5 µg/mL (≈ 1.54 µM)
SMILES: CN(C)Cc1cn([C@@H]2C(=O)N3[C@@H]2SC(C)(C)[C@@H]3C(=O)O)nn1
- Ratio (Escherichia coli [8]): 2.5
- Ratio (Pseudomonas aeruginosa [9]): 2.5
- Ratio (Streptococcus pyogenes [10]): 2.5
- Ratio (Staphylococcus aureus [11]): 2.5

- MIC (Staphylococcus aureus [12]): 2.34 µg/mL (≈ 5.03 µM)
- MIC [13]: 1.17 µg/mL (≈ 2.51 µM)
SMILES: CC1(C)O[C@@H]2[C@@H](CC[C@]3(COC(C)(C)O3)[C@H]2OCc2cn(-c3cccc4ccccc34)nn2)O1
- Ratio (Staphylococcus aureus [14]): 4
- Ratio [15]: 4

- MIC (Pseudomonas aeruginosa [16]): 1.17 µg/mL (≈ 2.26 µM)
- MIC (Klebsiella pneumoniae [17]): 9.37 µg/mL (≈ 18.1 µM)
SMILES: CC1(C)O[C@@H]2[C@@H](CC[C@]3(COC(C)(C)O3)[C@H]2OCc2cn(-c3c(Cl)cc(Cl)cc3Cl)nn2)O1
- Ratio (Pseudomonas aeruginosa [18]): 16
- Ratio (Klebsiella pneumoniae [19]): 4

- MIC (Klebsiella pneumoniae [20]): 12.5 µg/mL (≈ 29.7 µM)
- MIC (Escherichia coli [21]): 25 µg/mL (≈ 59.3 µM)
SMILES: CC(C)(NS(=O)(=O)c1ccccc1)c1cn(-c2ccc(Br)cc2)nn1

- MIC (Staphylococcus aureus [22]): > 250 µg/mL
- MIC (Staphylococcus aureus [23]): > 250 µg/mL
- MIC (Escherichia coli [24]): > 250 µg/mL
- MIC (Pseudomonas aeruginosa [25]): > 250 µg/mL
SMILES: CC(=O)OC[C@@H]1O[C@H](n2cc(CNC(=O)c3ccc(-c4ccc(Br)cc4)o3)nn2)[C@@H](OC(C)=O)[C@H](OC(C)=O)[C@H]1OC(C)=O

- MIC (Staphylococcus aureus [26]): 0.5 µg/mL (≈ 0.9 µM)
- MIC (Escherichia coli [27]): 0.5 µg/mL (≈ 0.9 µM)
- MIC (Pseudomonas aeruginosa [28]): 0.5 µg/mL (≈ 0.9 µM)
- MIC (Bacillus subtilis): 0.5 µg/mL (≈ 0.9 µM)
SMILES: COc1ccc(-c2cc(-c3cccs3)nc(OCc3cn(CC(=O)Nc4ccc(C(C)=O)cc4)nn3)c2O)cc1

— ChEMBL document CHEMBL5344406, “1,2,3-Triazole-containing hybrids with potential antibacterial activity against ESKAPE pathogens” (2022)
